The test system of one experiment is PbmCherryLuci. As to the kind of experiment: Prime/boost immunisation of C57BL/6 mice with CD8 depletion before mosquito bite challenge (FIG. 4). It counts as in vivo, Plasmodium berghei. Conditions: C57BL/6, prime/boost with 2 x 100 mg/kg P.O., 10 mosquito bites ten weeks after boost. The procedure:
In addition to these protective antibody responses, the contribution of CD8 T-cells to the mechanism of immune protection was tested. Female C57BL/6 mice were immunized using a prime/boost immunisation regimen. The first immunisation was with 40,000 PbmCherryLuci salivary gland sporozoites i.v. followed by two doses of Example 1A at 100 mg/kg P.O. (given at 36 and 48 hours post infection). The second immunisation (boost) was eight weeks later, this time with 20,000 PbmCherryLuci sporozoites but with Example IA treatment as for the prime immunisation. Ten weeks after the boost immunisation (eighteen weeks after the prime immunisation) the mice were injected with 150 μg of a CD8 depleting antibody, or an isotype control non-depleting antibody the day before the mice were challenged with the bites of 10 PbmCherryLuci infected mosquitoes for 15 minutes. Giemsa stained thin blood smears were analysed until 30 days after challenge for the presence of parasites in the blood and mice were considered to be protected from infection if no blood parasites were observed within the 30 days post […].

For experiment [1], the system named is P. berghei sporozoites expressing mCherry and Luciferase (PbmCherryLuci). As to the kind of experiment: Chemoprotection of BALB/c mice infected with PbmCherryLuci sporozoites (FIG. 1). It is filed as in vivo, Plasmodium berghei. Conditions: female BALB/c mice, 40,000 sporozoites i.v.; treated twice by oral gavage at 36 and 48 hours during liver infection; 30 days monitoring. The procedure: 40,000 PbmCherryLuci sporozoites (or the indicated number of sporozoites) were inoculated i.v. and compounds were administered by oral gavage at indicated time points during liver infection. Liver infection levels and egress of parasites from the liver were measured by bioluminescence signal from the parasites using an In Vivo Imaging System (IVIS, Perkin Elmer) at the peak of liver infection (52 hours post infection, hpi), during liver egress (55 hpi) as well as during the first round of blood infection (65 hpi). Initiation of blood infection was also measured by flow cytometry at 65 hpi using the mCherry reporter to determine the parasitemia of this first round of blood infection. These analyses allowed quantification of the efficacy of drug killing of parasites in the liver (52 hpi), preventing their egress from the liver (55 hpi) or preventing their successful infection of the blood (65 hpi). Mice were monitored by giemsa stained thin blood smears for the presence of parasites in the blood for 30 days post infection. If no blood infection was seen during the subsequent 30 days, mice were declared cured of malaria infection.
Mice were infected with 40,000 P. berghei sporozoites expressing mCherry and Luciferase (PbmCherryLuci) and treated with Example 1A as described above. […]

The test system of experiment [2] is PbmCherryLuci salivary gland sporozoites in HepG2 human hepatoma cells. Description: In vitro infection assay: immune serum inhibition of sporozoite infection of HepG2 cells (FIG. 3). It counts as cell-based, Plasmodium berghei. The conditions noted are these: serum of five BALB/c mice immunised ten months prior, 1 in 20 dilution, 48 h, versus naive serum. The procedure:
To initiate the in vitro infection assay, 30,000 HepG2 human hepatoma cells were seeded into a 96-well plate format the day before infection. The day of infection, freshly dissected PbmCherryLuci salivary gland sporozoites were incubated with a 1 in 20 dilution of either naïve BALB/c serum (from n=5 mice) or immune serum (from n=5 mice) in culture media and added to HepG2 wells in technical triplicate. Serum samples were not pooled, so the response from five individual mice was analysed independently. Forty-eight hours after infection the infected cells were fixed with 4% formaldehyde and imaged using an Opera Phenix High Content Imager (PerkinElmer). The number of parasites in each well was counted using the mCherry reporter expressed by these parasites, the average number of parasites between the technical triplicates averaged for each serum sample, and the average for each mouse presented.

The test system of a further experiment is parasite. As to the kind of experiment: Parasite LDH growth assay (Parasite Assay), antiparasite potency. It is filed as cell-based. The conditions noted are these: 72 h. In a few lines:
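Ring-stage parasites at 0.7% parasitemia and 2% haematocrit, in RPMI-Hepes/bicarbonate with 5% heat-inactivated human serum and 0.5% albumax, were added to compound-containing medium. Cultures grew 72 h at 37 °C in gassed humidified boxes. Plates were then frozen overnight at −80 °C, thawed 4 h, and growth was measured by LDH assay.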

Another experiment deals with PMIX. As to the kind of experiment: Cleavage of PMIX substrates RAP1 and ASP in parasite extracts. It is filed as cell-based, P. falciparum. The procedure: To confirm that Example 1A was a dual inhibitor of PMIX and PMX function, the ability of this compound to inhibit cleavage of the known PMIX substrate Rhoptry Associated Protein 1 (RAPI) in parasite extracts was tested (Pino et al., 2017). RAP1 is a merozoite rhoptry protein that is localized to the parasitophorous vacuole after invasion and processed by both PMIX and SUB1 (Pino et al., 2017). […] RAP1 was not released into the parasite supernatant because it was deposited in the parasitophorous vacuole during the invasion process (Baldi, D., Andrews, K., Waller, R., Roos, D., Howard, R., Crabb, B. and Cowman, A. (2000)). RAP1 controls rhoptry targeting of RAP2 in the malaria parasite Plasmodium falciparum. Embo Journal 19, 2435-2443.

The next experiment addresses PMX (Plasmodium falciparum, UniProt Q8IAS0). The conditions noted are these: P. falciparum parasites incubated with compound; SERA5 120 kDa, processed by SUB1. The source says:
SERA5 is a 120 kDa protein required for merozoite egress and is processed by subtilisin-like protease subtilisin 1 (SUB1) to release a soluble polypeptide of approximately 50 kDa (Pino, P., Caldelari, R., Mukherjee, B., Vahokoski, J., Klages, N., Maco, B., et al. (2017). A multistage antimalarial targets the plasmepsins IX and X essential for invasion and egress. Science 358, 522-528). […] SERA5 was included as a control in all subsequent experiments as a proxy for PMX-mediated activation of SUB1.

We go through 1 compound from US20230355622A1, “METHODS OF CHEMOVACCINATION AGAINST PLASMODIUM INFECTIONS” (Merck Sharp & Dohme LLC, priority 2020, published 2023).

Chain of PMX (Q8IAS0 222-573): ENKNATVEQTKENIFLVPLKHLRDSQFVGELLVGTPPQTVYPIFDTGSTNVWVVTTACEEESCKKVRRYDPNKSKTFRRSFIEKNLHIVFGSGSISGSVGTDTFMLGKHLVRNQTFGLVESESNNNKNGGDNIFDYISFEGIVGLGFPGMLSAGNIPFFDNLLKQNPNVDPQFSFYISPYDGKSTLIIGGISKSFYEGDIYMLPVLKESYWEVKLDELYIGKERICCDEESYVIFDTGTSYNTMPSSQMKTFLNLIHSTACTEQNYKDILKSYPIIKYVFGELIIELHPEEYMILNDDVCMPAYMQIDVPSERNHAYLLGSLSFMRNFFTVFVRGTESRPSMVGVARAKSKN

Broadly, the EC50 is the concentration giving half of the maximal effect. High values mean lower potency in that assay, low ones higher potency in that assay. Take `CCC1(CC)CC(=O)N(C2CCOc3ccc(C(=O)N[C@H]4CC(C)(C)Oc5ccccc54)cc32)C(=N)N1` (stereo partly drawn) [Example 1A, 4-(4,4-diethyl-2-imino-6-oxotetrahydropyrimidin-1(2H)-yl)-N—((S)-2,2-dimethylchroman-4-yl)chroman-6-carboxamide]: the “blood parasites after challenge” value is reported as “all had blood parasites 4 days after challenge” with PbmCherryLuci (150 μg CD8 depleting antibody) and “negative for blood parasites throughout the 30-day observation period” with PbmCherryLuci (isotype control non-depleting antibody). Moreover, the “cure of infection / prevention of subsequent blood infection” value in experiment [1] is “cured mice of infection”. The “inhibition of HepG2 infection by immune serum” value in experiment [2] is given as “inhibition of infection using the serum from each of the five immunised mice”. In addition, in the experiment on parasite, the 50% effective concentration (EC50) is 500 pM. Moreover, the “RAP1 processing by PMIX and SUB1” value in the experiment on PMIX (treated parasites/merozoites, processed forms p82 and p69, unprocessed p87) was “only the unprocessed p87 form of RAP1 was present”. In addition, the “Apical Sushi Protein (ASP) processing by PMIX” value with PMIX (treated parasites, p47 processed, p87 full-length) is reported as “cleavage event was inhibited”. In addition, on PMX, the SERA5 processing entry is given as “accumulation of unprocessed SERA5 at 120 kDa”.
